In ChEMBL document CHEMBL1250456, “Synthesis and binding ability of 1,2,3-triazole-based triterpenoid receptors for recognition of Hg(2+) ion” (Bioorg Med Chem Lett, 2010):
Activity calls are given as the source filed them. The rule behind the calls is not given here.

Experiments:
[1] = Binding affinity to zinc ion by UV-vis titration analysis
[2] = Binding affinity to cadmium ion by UV-vis titration analysis
[3] = Binding affinity to mercury ion by Hildebrand-Benesi equation analysis
[4] = Binding affinity to copper ion by Hildebrand-Benesi equation analysis
[5] = Binding affinity to magnesium ion by UV-vis titration analysis

Activity [1]	Activity [2]	Ka [3] [×10⁴ /M]	Ka [4] [×10³ /M]	Activity [5]	SMILES
inactive	inactive	2.7	5	inactive	COC(=O)[C@@]1(C)CC[C@]2(C)CC[C@]3(C)C(=CC(=O)[C@@H]4[C@@]5(C)C[C@H](OC(=O)Cn6cc(COc7ccc8ccccc8c7C=O)nn6)[C@@H](OC(=O)Cn6cc(COc7ccc8ccccc8c7C=O)nn6)C(C)(C)[C@@H]5CC[C@]43C)[C@@H]2C1
inactive	inactive	3	1.6	inactive	COC(=O)[C@@]1(C)CC[C@]2(C)CC[C@]3(C)C(=CC(=O)[C@@H]4[C@@]5(C)C[C@H](OC(=O)Cn6cc(COc7ccccc7C=O)nn6)[C@@H](OC(=O)Cn6cc(COc7ccccc7C=O)nn6)C(C)(C)[C@@H]5CC[C@]43C)[C@@H]2C1
